According to PubChem BioAssay (NCI):
Where “and” joins values, the source holds several entries; their conditions need not be identical. Equal entries are not always repeated.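 How tested: cells in 96-well plates exposed to compound for 48 hours at five concentrations. The concentration for 50% growth inhibition is given as GI50. TGI: concentration producing complete growth inhibition.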

Assays:
Test in all cases: DTP human tumour cell line panel, 48 h
[1] = system: KM12 colon
[2] = system: OVCAR-4 ovarian
[3] = system: HOP-62 NSCLC
[4] = system: SK-MEL-2 melanoma
[5] = system: M14 melanoma
[6] = system: SK-MEL-28 melanoma
[7] = system: CCRF-CEM leukemia
[8] = system: IGROV1 ovarian
[9] = system: UACC-257 melanoma
[10] = system: DU-145 prostate

Structure (SMILES)	TGI [1]	TGI [2]	TGI [3]	TGI [4]	TGI [5]	TGI [6]	TGI [7]	TGI [8]	TGI [9]	TGI [10] [µM]	GI50 [1] [µM]	GI50 [2] [µM]	GI50 [3] [µM]	GI50 [4] [µM]	GI50 [10] [µM]	GI50 [5] [µM]	GI50 [6] [µM]	GI50 [8] [µM]	GI50 [9] [µM]	GI50 [7] [µM]
Cc1ccc(S(=O)(=O)OC[C@@H]2CO2)cc1	> 100 µM	> 100 µM	> 100 µM	> 100 µM	> 100 µM	> 100 µM	> 100 µM	> 100 µM	> 100 µM											
NC1=NCCC1(c1ccccc1)c1ccccn1 (stereo unspecified)	> 100 µM	> 100 µM	> 100 µM	> 100 µM	> 100 µM	> 100 µM	> 100 µM	> 100 µM	> 100 µM											
COC(=O)c1ccccc1NC(=O)C(=O)Cc1nc2c3c(ccc2[nH]c1=O)C(=O)c1ccccc1C3=O	> 100 µM	98 µM	39.1 µM	> 100 µM	> 100 µM	> 100 µM	> 100 µM	99.1 µM	62.8 µM											
COc1cc2ccnc([C@@H](OC(=O)c3ccccc3)c3ccc(OC)c(OC)c3OC)c2cc1OC	> 100 µM	> 100 µM		> 100 µM	> 100 µM	> 100 µM	> 100 µM	> 100 µM	> 100 µM											
O=C(CCc1nc(=S)[nH][nH]1)Nc1ccc(Cl)c(Cl)c1	> 100 µM	> 100 µM	> 100 µM	31.2 µM	> 100 µM	> 100 µM	> 100 µM	> 100 µM	> 100 µM											
O=C(CCNC12CC3CC(CC(C3)C1)C2)c1ccccc1	91.1 µM	> 100 µM		30 µM	37.1 µM	75.4 µM	39.2 µM	55.4 µM	49.4 µM	> 100										
Cc1nc2c(ccc3ncccc32)[nH]1	> 100 µM	> 100 µM	> 100 µM	> 100 µM	> 100 µM	> 100 µM	> 100 µM	> 100 µM	> 100 µM											
Cc1c(C(=O)C/C(=N/NC(=O)c2ccccc2O)C(=O)Nc2ccccc2C(C)C)[n+](=O)c2ccccc2n1[O-]	> 100 µM	> 100 µM	> 100 µM	8.81 µM	> 100 µM	> 100 µM	28.8 µM	> 100 µM	> 100 µM											
COc1ccc(CC2c3cc4c(cc3CCN2C)OCO4)c(C=O)c1OC (stereo unspecified)	> 100 µM	> 100 µM		> 100 µM	> 100 µM	> 100 µM	> 100 µM	> 100 µM	> 100 µM	> 100										
CCCCCCCCCCCC(=O)OCCOCCOCCOCCOCCOCc1ccccc1	> 100 µM	> 100 µM	> 100 µM	> 100 µM	> 100 µM	> 100 µM	> 100 µM	> 100 µM	> 100 µM											
CC1(C)C(=O)/C=C\C(=O)C(C)(C)C2=CC=C(O2)C(C)(C)C(=O)/C=C\C(=O)C(C)(C)C2=CC=C1O2	> 100 µM	> 100 µM	> 100 µM	> 100 µM		> 100 µM	> 100 µM	> 100 µM	> 100 µM											
CCOC(=O)C(C)(C)Oc1ccc2c(-c3ccccc3)cc(=O)oc2c1		> 100 µM	63.7 µM	48.7 µM	> 100 µM	> 100 µM	63.5 µM	> 100 µM	75.5 µM											
CCOC(=O)CCC1(C(=O)OCC)CCCCC1=O (stereo unspecified)	> 100 µM		> 100 µM	> 100 µM		> 100 µM	> 100 µM	> 100 µM	> 100 µM											
CCCC1C(=O)CCc2c(OC)ccc(OC)c21 (stereo unspecified)	> 100 µM	> 100 µM	> 100 µM	> 100 µM	> 100 µM		> 100 µM	> 100 µM	> 100 µM											
CN(C)N=Nc1ccc(C(N)=O)cc1	> 100 µM	> 100 µM	> 100 µM	> 100 µM	> 100 µM	> 100 µM	> 100 µM	> 100 µM	> 100 µM											
CN(C)C(=S)N=C(Nc1ccccc1)Nc1ccccc1	> 100 µM	> 100 µM	> 100 µM	> 100 µM	> 100 µM	> 100 µM	> 100 µM	> 100 µM	> 100 µM											
OCC1=CC(NC2CC(CO)C(O)C(O)C2O)C(O)C(O)C1O (stereo unspecified)	> 100 µM		> 100 µM		> 100 µM	> 100 µM	> 100 µM	> 100 µM	> 100 µM											
COC(=O)/C=C1\S/C(=N\NC(=O)c2cc3ccc2/C=C\c2ccc(cc2)/C=C\3)N(c2ccccc2)C1=O	4.15 µM	9.88 µM	6.97 µM	7.76 µM	15.4 µM	9.87 µM		3.27 µM	> 100 µM	35.3	2.03	3.17	2.68	2.65	5.11	3.27	2.97	1.66	5.14	
COc1cc2cc(OC)c3cc4c(cc3c2c(OC)c1OC)OCO4	> 51.2 µM	> 100 µM	> 100 µM	> 100 µM	> 62.1 µM	> 57.6 µM	37.9 µM	> 100 µM	> 100 µM											
C1=C2/CC[C@H](Sc3ccccc3)C2C2(CCCCC/1)OCCO2 (stereo partly specified)	94 µM		58.2 µM	32.7 µM		> 100 µM	> 100 µM	> 100 µM	45.2 µM											
CCN(CC)CCSc1c2ccccc2nc2cc(NCC(=O)Nc3ccccc3-c3ccccc3NC(=O)CNc3ccc4c(SCCN(CC)CC)c5ccccc5nc4c3)ccc12	> 100 µM	> 100 µM	> 100 µM	> 100 µM	> 100 µM	> 100 µM	96.9 µM	> 100 µM	> 100 µM											

Structure (SMILES)	TGI [1]	TGI [2]	TGI [3]	TGI [4]	TGI [5]	TGI [6]	TGI [7]	TGI [8]	TGI [9]	TGI [10] [µM]	GI50 [1] [µM]	GI50 [2] [µM]	GI50 [3] [µM]	GI50 [4] [µM]	GI50 [10] [µM]	GI50 [5] [µM]	GI50 [6] [µM]	GI50 [8] [µM]	GI50 [9] [µM]	GI50 [7] [µM]
O=C(O)CCC(NC(=O)c1ccc(Nc2nc3ccccc3nc2-c2cccs2)cc1)C(=O)O (stereo unspecified)	> 100 µM	> 100 µM	> 100 µM	> 100 µM	> 100 µM	> 100 µM	> 100 µM	> 100 µM	> 100 µM											
CC(=O)[CH-]C(=O)c1ccccc1.CC(=O)[CH-]C(=O)c1ccccc1.CN(C)c1ccc([O-])cc1.CN(C)c1ccc([O-])cc1.Cl.[Ti+4]	23.8 µM		> 31.6 µM	> 31.6 µM	> 31.6 µM	> 31.6 µM	> 31.6 µM	> 100 µM	> 31.6 µM		13.2		21.8	> 31.6		17.5	> 31.6	46.8	> 31.6	9.65
CCN1/C(=C\c2cc[n+](CC)c3ccccc23)C=Cc2ccccc21	1.42 µM	12.2 µM		10.9 µM	2.47 µM	2.33 µM	13.4 µM	12.8 µM	2.36 µM	13.4	0.104	0.0559		0.231	0.265	0.302	0.275	0.36	0.135	0.0859
COC1/C=C/OC2(C)Oc3c(C)c(O)c4c(O)c(c(/C=N/Nc5ccc([N+](=O)[O-])cc5[N+](=O)[O-])c(O)c4c3C2=O)NC(=O)C(C)=C/C=C/C(C)C(O)C(C)C(O)C(C)C(OC(C)=O)C1C (stereo unspecified)	6.68 µM	> 50 µM	25.5 µM		5.86 µM	5.23 µM	> 50 µM	> 50 µM	5.58 µM	9.32	1.71	2.9	2.47		2.55	1.61	1.45	1.87	1.48	1.55
O=C(Nc1nc2ccc([N+](=O)[O-])cc2s1)C(=O)C(C1OC(=O)c2ccccc21)[N+](=O)[O-] (stereo unspecified)	> 100 µM	> 100 µM	> 100 µM	> 100 µM	> 100 µM	> 100 µM	> 100 µM	> 100 µM	> 100 µM											
Nc1ccccc1S(=O)(=O)N(CC(=O)O)c1ccccc1		> 100 µM		> 100 µM	> 100 µM	> 100 µM	> 100 µM	> 100 µM	> 100 µM											
CCCCCCCCCCCCCC(=O)OC(/C=C/C(C)C)C(O)C(O)C(OC)C(=O)NC1CCCCN(C)C1=O (stereo unspecified)	7.49 µM and > 49 µM	7.57 µM and > 49 µM	6.54 µM and > 49 µM	9.12 µM and > 49 µM	6.09 µM and > 49 µM	7.64 µM and > 49 µM	10.7 µM and > 49 µM	5.9 µM and > 49 µM	18.3 µM and > 49 µM					> 49		> 49	> 49		> 49	> 49
CCC[CH2][Sn]([CH2]CCC)([S]c1cccc2cccnc12)[S]c1cccc2cccnc12		0.307 µM	2.79 µM		0.339 µM	0.472 µM	0.285 µM	0.53 µM				0.135	0.355			0.175	0.16	0.224		0.035
COc1cc2c(c3oc4c(O)cccc4c(=O)c13)CC(C(C)(O)CO)O2 (stereo unspecified)			> 100 µM	> 100 µM	> 100 µM	> 100 µM	> 100 µM	> 100 µM	> 100 µM	> 100										
O=C(O)CCNCCCNCCC(=O)O	> 100 µM	> 100 µM	> 100 µM	> 100 µM	> 100 µM	> 100 µM	> 100 µM	> 100 µM												
Cc1c(C(=O)CC(=O)C(=O)Nc2ccccc2C(F)(F)F)[n+](=O)c2ccccc2n1[O-]	61.6 µM	42 µM	> 100 µM	48.3 µM	39 µM	92.1 µM	50 µM	47.5 µM	36.2 µM											
COC(=O)CC[N+]1=CCC(c2ccccc2)(c2ccccc2)O1	> 100 µM	> 100 µM	> 100 µM	> 100 µM	> 100 µM	> 100 µM		> 100 µM	> 100 µM	> 100										
OCc1cc2ccccc2c2c3c(ccc12)OCO3	137 µM	603 µM	131 µM	84.9 µM	169 µM	350 µM		111 µM	82.3 µM	170	35	30.6	31.6	32.2	44	41.2	35.3	33.6	28.1	
FC(F)(F)c1cccc(Nc2nc(-c3ccccc3)nc3ncccc23)c1	> 100 µM	45.6 µM	22.2 µM	25.5 µM	16.5 µM	74.4 µM		16.8 µM		21.8	4.3	8.05	7.18	6.57	4.72	3.79	7.93	4.25		
CC(=O)OC1OC([C@@H]2c3cccc(O)c3C(=O)c3c(O)cc(C)cc32)C(O)C(O)C1O (stereo partly specified)			0.995 µM	2.14 µM	1.9 µM	3.6 µM	1.63 µM		1.33 µM	1.69	< 0.01		0.0985	0.162	0.137	0.12	0.0514		0.0951	0.0494
COc1ccccc1N1C(=O)C2c3[nH]c4ccccc4c3C3CCC(C(C)(C)C)CC3C2C1=O (stereo unspecified)		> 100 µM	> 100 µM		> 100 µM	> 100 µM	> 100 µM	> 100 µM	> 100 µM											
CNC(=S)OCCC(C)CCCC(C)C (stereo unspecified)	27.8 µM	30.9 µM	34.1 µM	26.7 µM	35.2 µM	41 µM	40.7 µM	31.7 µM	30.1 µM											
CC1(C(=O)O)CCC[C@@]2(C)C1CC[C@@]1(C)c3cocc3CCC21 (stereo partly specified)	> 100 µM	> 100 µM	> 100 µM	> 100 µM	> 100 µM	> 100 µM	> 100 µM	> 100 µM	> 100 µM											
Cc1cc(N(CCC#N)CCC#N)ccc1N=Nc1ccc(S(N)(=O)=O)cc1	> 100 µM	> 100 µM	> 100 µM	> 100 µM	> 100 µM	> 100 µM	> 100 µM	> 100 µM	> 100 µM											
NS(=O)(=O)c1ccc2c(c1)OCCOCCOCCOCCO2	> 100 µM		> 100 µM		> 100 µM	> 100 µM	> 100 µM	> 100 µM	> 100 µM	> 100										
